These results are taken from ChEMBL document CHEMBL1201862, “PubChem BioAssay data set” (2004).

Some test systems named below: CCRF-CEM; DU-145; HCC 2998; HCT-116; HOP-62; LOX IMVI; Malme-3M; NCI-H23; NCI-H460; NCI/ADR-RES; OVCAR-3; OVCAR-4; OVCAR-5; RXF 393; SNB-75; TK-10; UACC-257; UACC-62; UO-31.
Holding throughout (assay): growth of human tumour cells (NCI), 48 h

Structures are written as SMILES.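 Each compound was tested at five concentrations against cells in 96-well plates for 48 hours. At the GI50, growth is halved.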 Activity calls are given as the source filed them. Cut-off read from the data, not from the text of the source: active = GI50 up to about 1.1 µM and inactive = higher.

Consider `CCCCCCCCCC(=O)NCCc1c[nH]c2ccc(OC)cc12`, for which the GI50 was 7.26 µM (inactive) in the assay with CCRF-CEM; 20.2 µM (inactive) with DU-145; 19.5 µM (inactive) in the assay on HCC 2998; 21.4 µM (inactive) in the assay with HCT-116; 16.4 µM (inactive) in the assay with HOP-62; 13.8 µM (inactive) in the assay with LOX IMVI. Further, the GI50 with Malme-3M was 18.2 µM (inactive); in the assay with NCI-H23, 17.3 µM (inactive); in the assay on NCI-H460, 23.3 µM (inactive); in the assay with NCI/ADR-RES it was 19.2 µM (inactive); in the assay on OVCAR-3, 15.9 µM (inactive); in the assay on OVCAR-4, > 100 µM (inactive). Moreover, the GI50 with OVCAR-5 is 23.9 µM (inactive); in the assay on RXF 393 it was 19 µM (inactive); with SNB-75, 20.6 µM (inactive); in the assay on TK-10 it was 18.2 µM (inactive); in the assay with UACC-257, 20.8 µM (inactive); in the assay with UACC-62, 16.3 µM (inactive). In addition, the GI50 in the assay on UO-31 is 12.7 µM (inactive).

Turning to `COc1ccc([C@H]2C=C(c3cc(F)c(Cl)cc3Cl)NC(=S)N2)cc1`, the GI50 in the assay with CCRF-CEM was 30.2 µM (inactive); in the assay on DU-145, 39.9 µM (inactive); in the assay with HCC 2998, 23.9 µM (inactive); with HCT-116, 27 µM (inactive); in the assay on HOP-62, 38.6 µM (inactive); in the assay on LOX IMVI it was 37.3 µM (inactive). Also, the GI50 in the assay with Malme-3M was 40.6 µM (inactive); in the assay with NCI-H23, 37.5 µM (inactive); in the assay on NCI-H460, 20.1 µM (inactive); in the assay with NCI/ADR-RES, 25.7 µM (inactive); with OVCAR-3 it was 33.7 µM (inactive); with OVCAR-4, 28.3 µM (inactive). Also, the GI50 with OVCAR-5 is 43.1 µM (inactive); in the assay with RXF 393 it was 18.8 µM (inactive); in the assay on SNB-75 it was 18.2 µM (inactive); in the assay with TK-10 it was 32.7 µM (inactive); in the assay with UACC-257, 24.9 µM (inactive); with UACC-62, 28.3 µM (inactive). The GI50 with UO-31 was 36.6 µM (inactive).

As to `COc1ccc(/C=C(/c2ccc(OC)cc2)c2c(Cl)cc(Cl)c(/C(=C\c3ccc(OC)cc3)c3ccc(OC)cc3)c2/N=N/c2ccccc2)cc1`, the GI50 with CCRF-CEM was 50.1 µM (inactive); with DU-145, > 100 µM (inactive); in the assay on HCC 2998 it was > 100 µM (inactive); in the assay with HCT-116 it was > 100 µM (inactive); in the assay with HOP-62, > 100 µM (inactive); in the assay with LOX IMVI, > 100 µM (inactive). The GI50 in the assay on Malme-3M, with NCI-H23, in the assay on NCI-H460, in the assay on NCI/ADR-RES, with OVCAR-3 and in the assay on OVCAR-4 was > 100 µM (inactive) in each case. Moreover, the GI50 with OVCAR-5 was > 100 µM (inactive); in the assay on RXF 393, > 100 µM (inactive); with SNB-75, > 100 µM (inactive); with TK-10, > 100 µM (inactive); in the assay on UACC-257 it was 39.7 µM (inactive); in the assay with UACC-62, > 100 µM (inactive). Also, the GI50 in the assay on UO-31 is > 100 µM (inactive).

For the compound `O=C1C[C@H](COCc2ccccc2)NC(=O)C[C@H](COCc2ccccc2)NC(=O)C[C@H](COCc2ccccc2)N1`, the GI50 with CCRF-CEM is > 100 µM (inactive); in the assay on DU-145, > 100 µM (inactive); in the assay on HCC 2998, > 100 µM (inactive); in the assay on HCT-116 it was 32.4 µM (inactive); in the assay on HOP-62, 17.9 µM (inactive); with LOX IMVI, > 100 µM (inactive). Moreover, the GI50 was > 100 µM (inactive) with Malme-3M; 55.3 µM (inactive) with NCI-H23; > 100 µM (inactive) in the assay with NCI-H460; > 100 µM (inactive) in the assay with NCI/ADR-RES; 80.5 µM (inactive) in the assay on OVCAR-3; > 100 µM (inactive) in the assay on OVCAR-4. For the same compound, the GI50 with OVCAR-5 was > 100 µM (inactive); in the assay with RXF 393, 11.5 µM (inactive); in the assay with SNB-75 it was 2.55 µM (inactive); in the assay with TK-10 it was 18.1 µM (inactive); with UACC-257, > 100 µM (inactive); in the assay with UACC-62, > 100 µM (inactive). Further, the GI50 with UO-31 is > 100 µM (inactive).

`CCOC(=O)c1cccc(NC(=O)CI)c1`: the GI50 is 0.0239 µM (active) in the assay on CCRF-CEM; 1.76 µM (inactive) with DU-145; 2.24 µM (inactive) with HCC 2998; 0.301 µM (active) in the assay with HCT-116; 1.36 µM (inactive) in the assay with HOP-62; 0.123 µM (active) in the assay with LOX IMVI. For the same compound, the GI50 with Malme-3M is 1.21 µM (inactive); in the assay on NCI-H23 it was 0.336 µM (active); in the assay with NCI-H460, 1.2 µM (inactive); in the assay on NCI/ADR-RES, 0.5 µM (active); in the assay on OVCAR-3, 0.391 µM (active); in the assay on OVCAR-4, 0.5 µM (active). Besides, the GI50 is 1.64 µM (inactive) in the assay with OVCAR-5; 1.36 µM (inactive) in the assay on RXF 393; 1.42 µM (inactive) in the assay on SNB-75; 0.897 µM (active) in the assay with TK-10; 1.36 µM (inactive) with UACC-257; 0.575 µM (active) in the assay on UACC-62. For the same compound, the GI50 in the assay with UO-31 is 0.189 µM (active).

In the case of `CCOC(=O)[C@H]1C[C@]23CN(C(=O)OC(C)(C)C)CC[C@H]2CCC2(SCCCS2)[C@@H]3N1C`, the GI50 was 29.1 µM (inactive) in the assay with CCRF-CEM; 54.3 µM (inactive) in the assay on DU-145; 22.8 µM (inactive) in the assay on HCC 2998; 31.8 µM (inactive) in the assay on HCT-116; 39.9 µM (inactive) in the assay on HOP-62; 30.9 µM (inactive) with LOX IMVI. Also, the GI50 is 28.4 µM (inactive) in the assay with Malme-3M; 42 µM (inactive) with NCI-H23; 33.3 µM (inactive) in the assay on NCI-H460; 27.2 µM (inactive) in the assay on NCI/ADR-RES; 48.2 µM (inactive) in the assay with OVCAR-3; 16 µM (inactive) with OVCAR-4. Moreover, the GI50 was 50.5 µM (inactive) with OVCAR-5; 33.8 µM (inactive) in the assay on RXF 393; 72.9 µM (inactive) with SNB-75; 36.6 µM (inactive) with TK-10; 25.6 µM (inactive) in the assay with UACC-257; 40.5 µM (inactive) in the assay with UACC-62. Also, the GI50 with UO-31 was 37.8 µM (inactive).

Regarding `O=C1Oc2ccccc2C(=O)/C1=C\Nc1nc(-c2ccccc2)cs1`, the GI50 in the assay with CCRF-CEM was 1.35 µM (inactive); in the assay with DU-145, 15.3 µM (inactive); in the assay on HCC 2998, 51.4 µM (inactive); in the assay with HCT-116, 4.95 µM (inactive); with HOP-62, 23.4 µM (inactive); in the assay on LOX IMVI, 5.2 µM (inactive). Also, the GI50 in the assay on Malme-3M was 11.6 µM (inactive); with NCI-H23, 16.7 µM (inactive); in the assay with NCI-H460, > 100 µM (inactive); in the assay on NCI/ADR-RES, 10.6 µM (inactive); in the assay on OVCAR-3, 14.3 µM (inactive); in the assay with OVCAR-4, 58.7 µM (inactive). The GI50 was 19 µM (inactive) in the assay on OVCAR-5; 12.4 µM (inactive) with RXF 393; 5.86 µM (inactive) in the assay on SNB-75; 2.21 µM (inactive) with TK-10; 10.5 µM (inactive) with UACC-257; 5.36 µM (inactive) with UACC-62. For the same compound, the GI50 in the assay on UO-31 was 7.8 µM (inactive).

Take `C=C1c2ccccc2Oc2nc3nc(N)c(C#N)c(N)c3c(N)c21`: the GI50 in the assay on CCRF-CEM was 23.7 µM (inactive); with DU-145 it was 43.7 µM (inactive); in the assay with HCC 2998, 19.5 µM (inactive); in the assay with HCT-116, 22.9 µM (inactive); in the assay on HOP-62 it was 19.1 µM (inactive); with LOX IMVI it was 24.5 µM (inactive). For the same compound, the GI50 is 22.8 µM (inactive) in the assay on Malme-3M; 18 µM (inactive) in the assay with NCI-H23; 16 µM (inactive) in the assay with NCI-H460; 28.4 µM (inactive) in the assay with NCI/ADR-RES; 16.6 µM (inactive) in the assay on OVCAR-3; 42.6 µM (inactive) in the assay on OVCAR-4. Besides, the GI50 in the assay on OVCAR-5 was 85.5 µM (inactive); in the assay on RXF 393, 58.1 µM (inactive); in the assay on SNB-75 it was 24.5 µM (inactive); in the assay with TK-10, 39.1 µM (inactive); with UACC-257, 53.1 µM (inactive); in the assay with UACC-62 it was 35.7 µM (inactive). Also, in the assay with UO-31, the GI50 was 25.2 µM (inactive).

On to `COC(=O)/C=C1\C(=O)N(C(C)=O)c2ccc(Br)cc21`, for which the GI50 in the assay with CCRF-CEM is 1.47 µM (inactive); with DU-145, 12.8 µM (inactive); in the assay on HCC 2998 it was 17.7 µM (inactive); in the assay with HCT-116, 6.92 µM (inactive); in the assay with HOP-62, 13.2 µM (inactive); with LOX IMVI it was 7.89 µM (inactive). Moreover, the GI50 was 14.1 µM (inactive) with Malme-3M; 15.3 µM (inactive) in the assay with NCI-H23; 14.6 µM (inactive) in the assay with NCI-H460; 11.7 µM (inactive) in the assay on NCI/ADR-RES; 4.76 µM (inactive) in the assay on OVCAR-3; 13.2 µM (inactive) with OVCAR-4. In addition, the GI50 with OVCAR-5 is 17.3 µM (inactive); in the assay with RXF 393, 7.46 µM (inactive); in the assay with SNB-75 it was 8.59 µM (inactive); in the assay on TK-10, 6.31 µM (inactive); in the assay with UACC-257, 10.7 µM (inactive); in the assay with UACC-62, 11.6 µM (inactive). Besides, the GI50 in the assay on UO-31 is 0.69 µM (active).

Take `c1ccc(-c2nnn(CCN3CCCCC3)n2)cc1`: the GI50 in the assay with CCRF-CEM, in the assay on DU-145, with HCC 2998, in the assay with HCT-116, in the assay on HOP-62 and with LOX IMVI was > 100 µM (inactive) throughout. The GI50 in the assay on Malme-3M, in the assay on NCI-H23, in the assay with NCI-H460, with NCI/ADR-RES, in the assay on OVCAR-3 and in the assay on OVCAR-4 was > 100 µM (inactive) in each case. The GI50 in the assay on OVCAR-5, in the assay with RXF 393, with SNB-75, in the assay on TK-10, with UACC-257 and with UACC-62 was > 100 µM (inactive) each time. Besides, the GI50 with UO-31 was > 100 µM (inactive).
